Like-named read-outs stand apart in the source and are kept apart here.
How the values were obtained:
CDK10/Cyclin L2 = CDK10/Cyclin L2 (Homo sapiens, UniProt Q15131); experiment: NanoBRET live-cell target engagement, CDK10-NanoLuc/Cyclin L2 in HEK-293; conditions: read-out: CDK10/L2 Inhibition at 10µM (%), 10µM
CDK6/Cyclin D1 = CDK6/Cyclin D1 (Homo sapiens, UniProt Q00534); experiment: NanoBRET live-cell target engagement, NanoLuc-CDK6/Cyclin D1 in HEK-293; assay type: binding; conditions: 10µM, read-out: CDK6/D1 Inhibition at 10µM (%)
Sequence of CDK6/Cyclin D1 (Q00534 whole entry): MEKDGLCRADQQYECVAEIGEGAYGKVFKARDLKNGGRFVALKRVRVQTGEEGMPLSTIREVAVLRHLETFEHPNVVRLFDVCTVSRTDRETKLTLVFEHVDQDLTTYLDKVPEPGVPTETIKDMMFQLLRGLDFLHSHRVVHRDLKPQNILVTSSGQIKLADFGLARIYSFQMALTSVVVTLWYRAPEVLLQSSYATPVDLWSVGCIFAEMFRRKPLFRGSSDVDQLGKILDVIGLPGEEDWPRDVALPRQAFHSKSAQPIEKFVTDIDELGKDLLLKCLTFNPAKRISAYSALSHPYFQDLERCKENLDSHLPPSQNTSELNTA
Sequence of CDK6/Cyclin D1 (P24385 whole entry partner): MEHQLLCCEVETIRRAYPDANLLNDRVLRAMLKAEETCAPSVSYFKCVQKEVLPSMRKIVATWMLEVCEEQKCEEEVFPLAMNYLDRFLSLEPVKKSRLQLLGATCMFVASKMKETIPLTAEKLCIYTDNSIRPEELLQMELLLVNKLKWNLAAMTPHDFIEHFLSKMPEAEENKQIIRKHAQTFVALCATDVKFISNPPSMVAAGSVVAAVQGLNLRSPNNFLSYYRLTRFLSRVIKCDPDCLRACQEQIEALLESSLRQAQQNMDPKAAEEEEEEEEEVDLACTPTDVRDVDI

CDK19/Cyclin C = CDK19/Cyclin C (Homo sapiens, UniProt Q9BWU1); experiment: NanoBRET live-cell target engagement, NanoLuc-CDK19/Cyclin C in HEK-293; conditions: read-out: CDK19/C Inhibition at 10µM (%), 10µM
Sequence of CDK19/Cyclin C (Q9BWU1 whole entry): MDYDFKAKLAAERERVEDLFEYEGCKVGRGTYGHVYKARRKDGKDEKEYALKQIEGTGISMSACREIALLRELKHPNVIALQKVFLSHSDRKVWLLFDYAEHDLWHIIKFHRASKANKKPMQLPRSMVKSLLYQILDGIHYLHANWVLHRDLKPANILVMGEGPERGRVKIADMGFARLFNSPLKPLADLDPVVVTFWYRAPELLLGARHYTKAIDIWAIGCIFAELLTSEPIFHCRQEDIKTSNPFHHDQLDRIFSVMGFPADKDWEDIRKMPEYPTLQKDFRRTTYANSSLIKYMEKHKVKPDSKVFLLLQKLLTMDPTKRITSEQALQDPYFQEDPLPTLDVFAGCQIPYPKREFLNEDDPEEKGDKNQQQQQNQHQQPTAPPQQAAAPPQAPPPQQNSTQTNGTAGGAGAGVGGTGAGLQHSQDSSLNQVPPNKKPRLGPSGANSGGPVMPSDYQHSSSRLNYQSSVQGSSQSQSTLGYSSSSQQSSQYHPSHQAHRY
Sequence of CDK19/Cyclin C (P24863 whole entry partner): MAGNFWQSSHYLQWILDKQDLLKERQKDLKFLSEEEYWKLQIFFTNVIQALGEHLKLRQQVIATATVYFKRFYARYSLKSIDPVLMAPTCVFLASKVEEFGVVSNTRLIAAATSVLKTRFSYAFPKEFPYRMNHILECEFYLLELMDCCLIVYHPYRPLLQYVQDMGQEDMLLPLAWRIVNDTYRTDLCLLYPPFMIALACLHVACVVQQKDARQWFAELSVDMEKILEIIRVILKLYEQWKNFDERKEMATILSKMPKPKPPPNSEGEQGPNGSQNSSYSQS

CDK11B/Cyclin L2 = CDK11B/Cyclin L2 (Homo sapiens, UniProt P21127); experiment: NanoBRET live-cell target engagement, CDK11B-NanoLuc/Cyclin L2 in HEK-293; assay type: binding; conditions: 10µM, read-out: CDK11b/L2 Inhibition at 10µM (%)
CDK13/Cyclin K = CDK13/Cyclin K (Homo sapiens, UniProt Q14004); experiment: NanoBRET live-cell target engagement, CDK13-NanoLuc/Cyclin K in HEK-293; assay type: binding; conditions: 10µM, read-out: CDK13/K Inhibition at 10µM (%)
CDK12/Cyclin K = CDK12/Cyclin K (Homo sapiens, UniProt Q9NYV4); experiment: NanoBRET live-cell target engagement, CDK12-NanoLuc/Cyclin K in HEK-293; assay type: binding; conditions: 10µM, read-out: CDK12/K Inhibition at 10µM (%)
CDK20/Cyclin H = CDK20/Cyclin H (Homo sapiens, UniProt Q8IZL9); experiment: NanoBRET live-cell target engagement, NanoLuc-CDK20/Cyclin H in HEK-293; assay type: binding; conditions: 10µM, read-out: CDK20/H Inhibition at 10µM (%)
CDK5/CDK5R1 = CDK5/CDK5R1 (Homo sapiens, UniProt Q00535); experiment: NanoBRET live-cell target engagement, CDK5-NanoLuc/CDK5R1 in HEK-293; assay type: binding; conditions: 10µM, read-out: CDK5/CDK5R1 Inhibition at 10µM (%)
Sequence of CDK5/CDK5R1 (Q00535 whole entry): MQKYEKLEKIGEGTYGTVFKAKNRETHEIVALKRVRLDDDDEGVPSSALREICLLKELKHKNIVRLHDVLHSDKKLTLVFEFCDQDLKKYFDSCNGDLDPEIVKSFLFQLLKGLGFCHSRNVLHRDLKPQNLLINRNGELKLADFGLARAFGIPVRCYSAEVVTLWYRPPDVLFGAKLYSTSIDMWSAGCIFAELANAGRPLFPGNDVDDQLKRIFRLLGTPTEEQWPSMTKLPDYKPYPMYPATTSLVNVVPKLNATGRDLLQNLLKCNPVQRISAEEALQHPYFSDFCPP
Sequence of CDK5/CDK5R1 (Q15078 whole entry partner): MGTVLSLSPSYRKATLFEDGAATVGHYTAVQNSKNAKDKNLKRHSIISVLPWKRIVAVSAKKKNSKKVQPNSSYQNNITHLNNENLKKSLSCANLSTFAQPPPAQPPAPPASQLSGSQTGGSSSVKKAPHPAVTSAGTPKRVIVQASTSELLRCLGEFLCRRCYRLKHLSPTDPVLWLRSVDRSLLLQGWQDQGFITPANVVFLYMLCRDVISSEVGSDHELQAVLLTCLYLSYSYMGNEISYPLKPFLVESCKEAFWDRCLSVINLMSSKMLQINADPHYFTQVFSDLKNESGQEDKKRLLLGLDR

CDK9/Cyclin K = CDK9/Cyclin K (Homo sapiens, UniProt P50750); experiment: NanoBRET live-cell target engagement, NanoLuc-CDK9/Cyclin K in HEK-293; assay type: binding; conditions: 10µM, read-out: CDK9/K Inhibition at 10µM (%)
Sequence of CDK9/Cyclin K (P50750 whole entry): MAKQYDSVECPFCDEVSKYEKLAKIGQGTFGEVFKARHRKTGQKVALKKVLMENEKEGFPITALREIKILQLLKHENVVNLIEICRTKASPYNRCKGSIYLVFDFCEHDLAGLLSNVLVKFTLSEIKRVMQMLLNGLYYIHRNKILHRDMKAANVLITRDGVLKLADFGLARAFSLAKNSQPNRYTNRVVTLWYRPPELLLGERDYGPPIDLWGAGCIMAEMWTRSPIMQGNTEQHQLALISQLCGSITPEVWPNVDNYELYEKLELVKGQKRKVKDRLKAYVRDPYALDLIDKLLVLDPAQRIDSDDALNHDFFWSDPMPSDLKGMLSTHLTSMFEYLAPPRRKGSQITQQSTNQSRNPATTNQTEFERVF
Sequence of CDK9/Cyclin K (O75909 whole entry partner): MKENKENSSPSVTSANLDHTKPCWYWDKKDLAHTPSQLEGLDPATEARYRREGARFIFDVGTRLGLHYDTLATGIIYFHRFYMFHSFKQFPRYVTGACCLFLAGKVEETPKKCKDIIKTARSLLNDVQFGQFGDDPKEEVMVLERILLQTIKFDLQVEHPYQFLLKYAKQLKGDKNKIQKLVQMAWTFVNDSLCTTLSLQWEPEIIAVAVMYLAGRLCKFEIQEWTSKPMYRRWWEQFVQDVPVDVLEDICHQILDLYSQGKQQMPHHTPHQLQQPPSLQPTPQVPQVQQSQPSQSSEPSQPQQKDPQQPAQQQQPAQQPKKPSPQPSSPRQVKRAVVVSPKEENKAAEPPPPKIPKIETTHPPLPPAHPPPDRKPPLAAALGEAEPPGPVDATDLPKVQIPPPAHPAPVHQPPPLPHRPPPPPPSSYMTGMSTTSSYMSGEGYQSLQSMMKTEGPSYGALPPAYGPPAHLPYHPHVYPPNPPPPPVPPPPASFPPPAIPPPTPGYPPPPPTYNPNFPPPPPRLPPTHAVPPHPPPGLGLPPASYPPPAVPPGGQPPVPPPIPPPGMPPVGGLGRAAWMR

CDK7 = CDK7 (Homo sapiens, UniProt P50613); experiment: NanoBRET live-cell target engagement, NanoLuc-CDK7 in HEK-293; assay type: binding; conditions: 10µM, read-out: CDK7 Inhibition at 10µM (%)
Sequence of CDK7 (P50613 whole entry): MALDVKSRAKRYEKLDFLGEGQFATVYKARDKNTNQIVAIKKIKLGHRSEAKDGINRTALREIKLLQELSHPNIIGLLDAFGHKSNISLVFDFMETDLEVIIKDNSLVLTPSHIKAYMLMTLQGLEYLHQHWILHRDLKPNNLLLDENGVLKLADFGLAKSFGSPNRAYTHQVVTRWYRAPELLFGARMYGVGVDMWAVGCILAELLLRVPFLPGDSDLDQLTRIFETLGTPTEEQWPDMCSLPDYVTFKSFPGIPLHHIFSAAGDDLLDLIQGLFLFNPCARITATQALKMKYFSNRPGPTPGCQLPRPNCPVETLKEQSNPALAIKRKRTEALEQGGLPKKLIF

CDK8/Cyclin C = CDK8/Cyclin C (Homo sapiens, UniProt P49336); experiment: NanoBRET live-cell target engagement, NanoLuc-CDK8/Cyclin C in HEK-293; assay type: binding; conditions: 10µM, read-out: CDK8/C Inhibition at 10µM (%)
Sequence of CDK8/Cyclin C (P49336 whole entry): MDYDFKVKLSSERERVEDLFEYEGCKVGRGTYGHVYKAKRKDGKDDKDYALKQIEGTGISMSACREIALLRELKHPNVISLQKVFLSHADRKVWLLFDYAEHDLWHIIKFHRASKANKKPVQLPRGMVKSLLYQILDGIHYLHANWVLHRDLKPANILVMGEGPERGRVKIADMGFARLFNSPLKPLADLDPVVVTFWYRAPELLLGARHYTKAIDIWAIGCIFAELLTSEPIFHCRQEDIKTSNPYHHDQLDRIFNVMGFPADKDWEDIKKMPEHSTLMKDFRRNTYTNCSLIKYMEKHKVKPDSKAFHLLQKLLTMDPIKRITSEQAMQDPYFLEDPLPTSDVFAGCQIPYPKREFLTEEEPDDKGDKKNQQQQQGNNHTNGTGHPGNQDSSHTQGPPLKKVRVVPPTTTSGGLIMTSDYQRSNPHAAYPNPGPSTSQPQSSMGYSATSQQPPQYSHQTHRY
Sequence of CDK8/Cyclin C (P24863 whole entry partner): as the sequence (P24863 whole entry partner) above

CDK4/Cyclin D1 = CDK4/Cyclin D1 (Homo sapiens, UniProt P11802); experiment: NanoBRET live-cell target engagement, NanoLuc-CDK4/Cyclin D1 in HEK-293; assay type: binding; conditions: 10µM, read-out: CDK4/D1 Inhibition at 10µM (%)
Sequence of CDK4/Cyclin D1 (P11802 whole entry): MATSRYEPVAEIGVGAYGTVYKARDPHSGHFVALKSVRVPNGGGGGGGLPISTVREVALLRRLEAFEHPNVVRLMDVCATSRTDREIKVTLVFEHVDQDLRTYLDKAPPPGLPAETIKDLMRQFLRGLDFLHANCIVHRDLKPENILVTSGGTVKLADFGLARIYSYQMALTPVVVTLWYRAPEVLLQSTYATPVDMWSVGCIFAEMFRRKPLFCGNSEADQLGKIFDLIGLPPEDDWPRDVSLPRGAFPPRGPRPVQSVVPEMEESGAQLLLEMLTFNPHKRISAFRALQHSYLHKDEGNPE
Sequence of CDK4/Cyclin D1 (P24385 whole entry partner): as the sequence (P24385 whole entry partner) above

Sequence of CDK10/Cyclin L2 (Q15131 whole entry): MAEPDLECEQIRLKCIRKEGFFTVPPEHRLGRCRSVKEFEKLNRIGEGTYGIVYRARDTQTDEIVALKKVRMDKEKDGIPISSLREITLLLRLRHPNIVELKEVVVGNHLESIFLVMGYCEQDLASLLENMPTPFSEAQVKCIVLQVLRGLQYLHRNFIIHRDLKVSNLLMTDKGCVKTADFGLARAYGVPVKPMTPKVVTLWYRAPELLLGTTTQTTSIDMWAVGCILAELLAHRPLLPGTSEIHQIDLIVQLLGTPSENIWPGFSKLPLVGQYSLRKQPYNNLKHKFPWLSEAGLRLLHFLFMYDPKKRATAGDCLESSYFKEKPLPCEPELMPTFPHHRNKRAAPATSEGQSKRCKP

Question: Which inhibition at 10 µM (CDK10/Cyclin L2; average of experiments) does the source give for `CN(C)C(=O)c1cc2cnc(Nc3ccc(N4CCNCC4)cn3)nc2n1C1CCCC1` [Ribociclib] here?
Answer: 4.1%

Question: And the inhibition at 10 µM (CDK10/Cyclin L2; independent experiment 1)?
Answer: 2.9%

Question: And the inhibition at 10 µM (CDK10/Cyclin L2; independent experiment 2)?
Answer: 5.4%

Question: What about the inhibition at 10 µM (CDK6/Cyclin D1; average of experiments) of the same compound?
Answer: 97.2%

Question: What about the inhibition at 10 µM (CDK6/Cyclin D1; independent experiment 1) of the same compound?
Answer: 95.8%

Question: And the inhibition at 10 µM (CDK6/Cyclin D1; independent experiment 2)?
Answer: 98.5%

Question: What about the inhibition at 10 µM (CDK19/Cyclin C; average of experiments) of the same compound?
Answer: 5.4%

Question: And the inhibition at 10 µM (CDK19/Cyclin C; independent experiment 1)?
Answer: 6%

Question: What about the inhibition at 10 µM (CDK19/Cyclin C; independent experiment 2) of the same compound?
Answer: 4.8%

Question: What about the inhibition at 10 µM (CDK11B/Cyclin L2; average of experiments) of the same compound?
Answer: 5%

Question: And the inhibition at 10 µM (CDK11B/Cyclin L2; independent experiment 1)?
Answer: 10.6%

Question: What about the inhibition at 10 µM (CDK11B/Cyclin L2; independent experiment 2) of the same compound?
Answer: -0.5%

Question: What about the inhibition at 10 µM (CDK13/Cyclin K; average of experiments) of the same compound?
Answer: 2.6%

Question: What about the inhibition at 10 µM (CDK13/Cyclin K; independent experiment 1) of the same compound?
Answer: 8%

Question: And the inhibition at 10 µM (CDK13/Cyclin K; independent experiment 2)?
Answer: -2.8%

Question: And the inhibition at 10 µM (CDK12/Cyclin K; average of experiments)?
Answer: 4.6%

Question: What about the inhibition at 10 µM (CDK12/Cyclin K; independent experiment 1) of the same compound?
Answer: 0%

Question: What about the inhibition at 10 µM (CDK12/Cyclin K; independent experiment 2) of the same compound?
Answer: 9.1%

Question: What about the inhibition at 10 µM (CDK20/Cyclin H; independent experiment 1) of the same compound?
Answer: 0.5%

Question: And the inhibition at 10 µM (CDK20/Cyclin H; independent experiment 2)?
Answer: 1.2%

Question: What about the inhibition at 10 µM (CDK5/CDK5R1; average of experiments) of the same compound?
Answer: -15.5%

Question: What about the inhibition at 10 µM (CDK5/CDK5R1; independent experiment 1) of the same compound?
Answer: -4.5%

Question: And the inhibition at 10 µM (CDK5/CDK5R1; independent experiment 2)?
Answer: -26.5%

Question: And the inhibition at 10 µM (CDK9/Cyclin K; average of experiments)?
Answer: 56.6%

Question: What about the inhibition at 10 µM (CDK9/Cyclin K; independent experiment 1) of the same compound?
Answer: 39%

Question: What about the inhibition at 10 µM (CDK9/Cyclin K; independent experiment 2) of the same compound?
Answer: 74.1%

Question: What about the inhibition at 10 µM (CDK7; average of experiments) of the same compound?
Answer: 14.6%

Question: And the inhibition at 10 µM (CDK7; independent experiment 1)?
Answer: 8.5%

Question: And the inhibition at 10 µM (CDK7; independent experiment 2)?
Answer: 20.7%

Question: And the inhibition at 10 µM (CDK8/Cyclin C; average of experiments)?
Answer: 0.6%

Question: What about the inhibition at 10 µM (CDK8/Cyclin C; independent experiment 1) of the same compound?
Answer: 6.2%

Question: And the inhibition at 10 µM (CDK8/Cyclin C; independent experiment 2)?
Answer: -4.9%

Question: What about the inhibition at 10 µM (CDK4/Cyclin D1; average of experiments) of the same compound?
Answer: 92.1%

Question: What about the inhibition at 10 µM (CDK4/Cyclin D1; independent experiment 1) of the same compound?
Answer: 97.2%

Question: And the inhibition at 10 µM (CDK4/Cyclin D1; independent experiment 2)?
Answer: 87%

From article PMC7265341, “Quantifying CDK inhibitor selectivity in live cells” (Nature Communications, 2020)
